Assay results as given in patent US11484032B2, “Compositions for inhibition of insect sensing” (Vanderbilt University, priority 2011, dated 2022).

Assays:
DmORco = target: T1, DmORco (Drosophila melanogaster, UniProt Q9VNB5); assay: Whole-cell patch clamp, HEK cells transiently expressing DmORco; format: cell-based; details: DmORco transiently transfected HEK cells
T1 construct: expressed in transfected cells; host or cells: Flp-In T-REx 293 (HEK), transient, pCI vector, GFP co-transfected as a separate marker
T1 sequence (Q9VNB5 1-486): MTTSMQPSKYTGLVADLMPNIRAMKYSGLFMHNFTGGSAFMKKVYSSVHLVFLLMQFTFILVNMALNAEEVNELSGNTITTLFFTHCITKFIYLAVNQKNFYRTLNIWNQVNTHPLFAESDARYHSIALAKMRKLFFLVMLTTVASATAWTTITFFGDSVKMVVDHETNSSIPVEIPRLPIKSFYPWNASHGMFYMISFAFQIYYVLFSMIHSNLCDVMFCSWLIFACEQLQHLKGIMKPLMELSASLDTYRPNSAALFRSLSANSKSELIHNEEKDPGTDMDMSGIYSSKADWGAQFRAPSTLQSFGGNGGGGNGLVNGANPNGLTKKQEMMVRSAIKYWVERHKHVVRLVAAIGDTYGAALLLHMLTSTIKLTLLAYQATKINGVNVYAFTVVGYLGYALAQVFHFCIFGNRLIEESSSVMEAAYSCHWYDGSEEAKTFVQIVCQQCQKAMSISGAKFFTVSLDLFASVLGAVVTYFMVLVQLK
Description: For transient transfections, ORs were cloned into pCl (Promega) and transfected into Flp-In™ T-REx™293 cell lines (Invitrogen) with Fu GENE6 (Roche). For the creation of stable cell lines, a cell culture expression vector capable of expressing Orco in conjunction with a conventional OR, pcDNA5/FRT/TO (Invitrogen) was modified to create two individual expression cassettes each under the control of a separate CMV/Tet02 promoter and a BGH poly-adenylation signal. Cells (as above) were transfected with the modified pcDNA5 plasmid along with POG44 (a Flp recombinase expression plasmid) to facilitate site-specific recombination. Stable cell lines were selected using Hygromycin B (Invitrogen). Cells were maintained in DMEM (Invitrogen) supplemented with 10% Tetracycline-free FBS (HyClone) and 15 ng/ml Blasticidin. […] Baseline readings were taken for 20 s before automated addition of compound previously diluted in DMSO and assay buffer. […]
Currents from OR-expressing HEK293 cells were amplified with an Axopatch 200b Amplifier (Axon Instruments) and digitized through a Digidata 1322A (Axon Instruments). Electrophysiological data was recorded and analyzed using pCLAMP 10 (Axon Instruments). […]

[1] = tested on: AgORco-expressing CpB/C neurons; assay: Single sensillum recording, capitate peg sensilla, CpB/C neurons; format: in vivo, Anopheles gambiae; details: compound delivered via glass recording electrode
Method: Single sensillum recordings were performed on 4-7 day old, non-bloodfed Anopheles gambiae females maintained on 10% sucrose and a 12/12 light dark cycle. Legs, wings and antennae were removed from cold-anesthetized females that were then restrained on double-stick tape with thread. A glass reference electrode filled with Sensillar lymph ringers (SLR)(Xu, 2005) was placed in the eye and the recording electrode filled with DMSO or VUAA1 diluted in SLR was used to puncture sensilla at their base. Responses were recorded and digitized using a Syntech IDAC-4 and analyzed with AutoSpike software (Syntech). New glass recording pipettes were used for every recording. Data was sampled at 12 kHz.
The inventors next performed single unit, extracellular electrophysiological recordings on adult female An. gambiae to determine whether VUAA1 could activate AgORco-expressing odorant receptor neurons (ORNs) in vivo. ORNs, which express AgORco and a conventional OR are enclosed within the hair-like sensilla present on olfactory tissues. […] CpA is clearly distinguished from CpB/C by its large action potential amplitude. The action potential amplitudes of CpB and CpC are much smaller and in some preparations indistinguishable from each other; as a result, the spike activity of CpB and CpC neurons were binned for data analysis. […]

**Q.** For CCc1ccc(NC(=O)CSc2nnc(-c3cccnc3)n2CC)cc1 [VUAA1, 2-((4-ethyl-5-(pyridin-3-yl)-4H-1,2,4-triazol-3-yl)thio)-N-(4-ethylphenyl)acetamide], which whole-cell current response (DmORco) is on record?
**A.** Its whole-cell current response is “robust inward currents”.

**Q.** What about the “spike frequency of CpB/C neurons” value [1] of the same compound?
**A.** The value was “increased the spike frequency of CpB/C neurons in a dose-dependent manner”.
